Test results from ChEMBL document CHEMBL1141709, “Optimization of small molecule agonists of the thrombopoietin (Tpo) receptor derived from a benzo[a]carbazole hit scaffold” (Bioorg Med Chem Lett, 2008).

What was measured:
[1] = target: T1, Thrombopoietin receptor (Homo sapiens, UniProt P40238); assay: Agonist activity at human thrombopoietin receptor expressed in mouse Ba/F3 cells by kinase activation based reporter gene assay; type: functional, cell-based, BaF3
T1 sequence (P40238 whole entry): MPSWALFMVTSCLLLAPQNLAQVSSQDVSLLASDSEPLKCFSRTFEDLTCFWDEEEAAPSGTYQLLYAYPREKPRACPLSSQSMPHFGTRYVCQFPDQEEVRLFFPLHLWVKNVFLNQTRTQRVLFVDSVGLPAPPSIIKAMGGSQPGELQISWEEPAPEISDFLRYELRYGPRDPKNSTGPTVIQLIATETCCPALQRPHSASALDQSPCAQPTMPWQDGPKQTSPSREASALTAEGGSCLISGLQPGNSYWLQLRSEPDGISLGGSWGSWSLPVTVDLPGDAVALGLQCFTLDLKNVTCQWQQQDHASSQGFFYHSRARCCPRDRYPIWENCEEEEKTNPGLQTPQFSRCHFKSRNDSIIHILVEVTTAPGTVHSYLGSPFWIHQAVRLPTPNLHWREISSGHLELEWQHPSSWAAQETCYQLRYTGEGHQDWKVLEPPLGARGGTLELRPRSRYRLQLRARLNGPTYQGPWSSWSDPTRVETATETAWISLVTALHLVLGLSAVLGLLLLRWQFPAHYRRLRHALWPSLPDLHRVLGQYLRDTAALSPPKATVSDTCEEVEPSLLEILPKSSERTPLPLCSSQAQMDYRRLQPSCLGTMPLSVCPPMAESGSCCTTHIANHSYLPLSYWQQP

[2] = target: T2, Thrombopoietin receptor (Homo sapiens) (UniProt P40238); assay: Agonist activity at human thrombopoietin receptor expressed in mouse Ba/F3 cells by kinase activation based reporter gene assay relative to 30 ng/mL thrombopoietin; type: functional, cell-based; conditions: BaF3
T2 sequence (whole entry): T1 sequence (P40238 whole entry)

[3] = target: T2, Thrombopoietin receptor (Homo sapiens); assay: Agonist activity at human thrombopoietin receptor expressed in mouse Ba/F3 cells in presence of 1 mM Zinc by kinase activation based reporter gene assay; type: functional, cell-based; conditions: BaF3
[4] = target: T2, Thrombopoietin receptor (Homo sapiens); assay: Agonist activity at human thrombopoietin receptor expressed in mouse Ba/F3 cells in presence of 1 mM Zinc by kinase activation based reporter gene assay relative to 30 ng/mL thrombopoietin; type: functional, cell-based; conditions: BaF3
[5] = Thrombopoietic activity in human megakaryocytes assessed as induction of cell differentiation by CFU-mega assay; type: functional, cell-based

Q: With `CCCCc1ccc(-c2ccc3c(CC)c(-c4ccc(C(=O)O)c(O)c4)[nH]c3c2F)cc1` as the molecule, how does the EC50 [1] read?
A: The EC50 was 228 nM.

Q: What about the Efficacy [2] of the same molecule?
A: The Efficacy was 97%.

Q: What does the source list for `CCCCc1ccc(-c2ccc3c4c([nH]c3c2F)-c2ccc(NS(C)(=O)=O)cc2C4)cc1`?
A: EC50 [3]: 166 nM; Efficacy [4]: 95%

Q: For `CCCCc1ccc(-c2ccc3cc(-c4ccc(C(N)=O)cc4)[nH]c3c2F)cc1`, which EC50 [1] is on record?
A: Its EC50 is 160 nM.

Q: What about the Efficacy [2] of the same molecule?
A: The Efficacy was 81%.

Q: With `CCCCc1ccc(-c2ccc3c4c([nH]c3c2)-c2ccc(C(=O)O)cc2C4)cc1` as the molecule, how does the EC50 [1] read?
A: The EC50 was 160 nM.

Q: And the Efficacy [2]?
A: Its Efficacy is 91%.

Q: With `CCCCc1ccc(-c2ccc3c(C(C)C)c(-c4ccc(C(=O)O)c(O)c4)[nH]c3c2F)cc1` as the molecule, how does the EC50 [1] read?
A: The EC50 was greater than 1000 nM.

Q: What about the Efficacy [2] of the same molecule?
A: The Efficacy was 70%.

Q: For `CC1=NN(c2ccc(C)c(C)c2)C(=O)/C1=N\Nc1cccc(-c2cccc(C(=O)O)c2)c1O` [ELTROMBOPAG], which EC50 [1] is on record?
A: The EC50 was 38 nM.

Q: What about the Efficacy [2] of the same molecule?
A: Its Efficacy is 127%.

Q: Which EC50 [1] does the source give for `Cc1cc(-c2ccc3c4c([nH]c3c2F)-c2ccc(C(N)=O)cc2OC4)ccc1F` here?
A: Its EC50 is 1430 nM.

Q: And the Efficacy [2]?
A: Its Efficacy is 83%.

Q: What does the source list for `CCCCc1ccc(-c2ccc3nc(-c4ccc(C(=O)O)cc4)[nH]c3c2)cc1`?
A: EC50 [1]: 1260 nM; Efficacy [2]: 83%

Q: What does the source list for `CCCCc1ccc(-c2ccc3c(C)c(-c4ccc(C(=O)O)c(O)c4)[nH]c3c2F)cc1`?
A: EC50 [1]: 116 nM; Efficacy [2]: 119%

Q: For `CCCCc1ccc(-c2ccc3cc(-c4ccc(C(=O)O)c(O)c4)[nH]c3c2F)cc1`, which EC50 [1] is on record?
A: Its EC50 is 51 nM.

Q: And the Efficacy [2]?
A: The Efficacy was 141%.

Q: For `CCCCc1ccc(-c2ccc3c4c([nH]c3c2)-c2ccc(C(=O)O)cc2S(=O)(=O)C4)cc1`, which EC50 [1] is on record?
A: Its EC50 is 449 nM.

Q: What about the Efficacy [2] of the same molecule?
A: The Efficacy was 115%.

Q: With `CCCCc1ccc(-c2ccc3c4c([nH]c3c2F)-c2ccc(NC(=O)CO)cc2C4)cc1` as the molecule, how does the EC50 [3] read?
A: The EC50 was 87 nM.

Q: And the Efficacy [4]?
A: Its Efficacy is 98%.

Q: For `CCCCc1ccc(-c2ccc3c4c([nH]c3c2)-c2ccc(C(=O)O)cc2CCC4)cc1`, which EC50 [3] is on record?
A: Its EC50 is 332 nM.

Q: And the Efficacy [4]?
A: The Efficacy was 71%.

Q: For `CCCCc1ccc(-c2ccc3c4c([nH]c3c2F)-c2cc(N)c(C(=O)O)cc2C4)cc1`, which EC50 [3] is on record?
A: The EC50 was 341 nM.

Q: And the Efficacy [4]?
A: The Efficacy was 70%.

Q: With `Cc1cc(-c2ccc3c4c([nH]c3c2F)-c2ccc(C(=O)O)cc2C4)ccc1F` as the molecule, how does the EC50 [1] read?
A: The EC50 was 26 nM.

Q: What about the Efficacy [2] of the same molecule?
A: The Efficacy was 144%.

Q: With `CCCCc1ccc(-c2ccc3c4c([nH]c3c2F)-c2ccc(NC(C)=O)cc2C4)cc1` as the molecule, how does the EC50 [1] read?
A: Its EC50 is 25 nM.

Q: And the Efficacy [2]?
A: The Efficacy was 117%.

Q: And the EC50 [5]?
A: Its EC50 is 300 nM.

Q: For `CCCCc1ccc(-c2ccc3c4c([nH]c3c2F)-c2ccc(NC(N)=O)cc2C4)cc1`, which EC50 [3] is on record?
A: The EC50 was 124 nM.

Q: And the Efficacy [4]?
A: The Efficacy was 128%.

Q: For `CCCCc1ccc(-c2ccc3c4c([nH]c3c2)-c2ccc(C(=O)O)cc2CC4)cc1`, which EC50 [1] is on record?
A: Its EC50 is 111 nM.

Q: What does the source list for `CCCCc1ccc(-c2ccc3c4c([nH]c3c2F)-c2ccc(NC(=O)C(=O)O)cc2C4)cc1`?
A: EC50 [1]: 21 nM; Efficacy [2]: 110%

Q: Which EC50 [1] does the source give for `CCCCc1ccc(-c2ccc3c4c([nH]c3c2F)-c2ccc(C(=O)O)cc2C4)cc1` here?
A: Its EC50 is 37 nM.

Q: And the Efficacy [2]?
A: The Efficacy was 151%.

Q: Which EC50 [1] does the source give for `Cc1cc(-c2ccc3c4c([nH]c3c2F)-c2ccc(C(N)=O)cc2COC4=O)ccc1F` here?
A: The EC50 was greater than 30000 nM.

Q: And the Efficacy [2]?
A: The Efficacy was 0%.

Q: Which EC50 [1] does the source give for `CCCCc1ccc(-c2ccc3c4c([nH]c3c2)-c2ccc(C(N)=O)cc2C4)cc1` here?
A: Its EC50 is 86 nM.

Q: What about the Efficacy [2] of the same molecule?
A: The Efficacy was 118%.

Q: Which results are given for `CCCCc1ccc(-c2ccc3c4c([nH]c3c2F)-c2ccc(C(=O)O)cc2C4(C)C)cc1`?
A: EC50 [1]: 111 nM; Efficacy [2]: 118%

Q: With `CCCCc1ccc(-c2ccc3c4c([nH]c3c2F)-c2cc(NC(C)=O)c(C(=O)O)cc2C4)cc1` as the molecule, how does the EC50 [1] read?
A: The EC50 was 376 nM.

Q: What about the Efficacy [2] of the same molecule?
A: Its Efficacy is 90%.

Q: With `CCCCc1ccc(-c2ccc3nc(-c4ccc(C(=O)O)c(O)c4)[nH]c3c2)cc1` as the molecule, how does the EC50 [1] read?
A: Its EC50 is 179 nM.

Q: What about the Efficacy [2] of the same molecule?
A: The Efficacy was 121%.

Q: For `CCCCc1ccc(-c2ccc3cc(-c4ccc(C(=O)O)cc4)[nH]c3c2F)cc1`, which EC50 [1] is on record?
A: Its EC50 is 117 nM.

Q: And the Efficacy [2]?
A: Its Efficacy is 112%.

Q: With `Cc1cc(-c2ccc3c4c([nH]c3c2F)-c2ccc(C(N)=O)cc2C4)ccc1F` as the molecule, how does the EC50 [1] read?
A: Its EC50 is 277 nM.

Q: And the Efficacy [2]?
A: Its Efficacy is 105%.
